Laboratory results: patent US20250171437A1 (Agios Pharmaceuticals,Inc., priority 2022, published 2025)

Biological target: T1, human PAH with the R408W mutation (A375 R408W cells) (Homo sapiens, UniProt P00439, R408W)
T1 construct: expressed in transfected cells
T1 sequence (P00439 1-452 R408W): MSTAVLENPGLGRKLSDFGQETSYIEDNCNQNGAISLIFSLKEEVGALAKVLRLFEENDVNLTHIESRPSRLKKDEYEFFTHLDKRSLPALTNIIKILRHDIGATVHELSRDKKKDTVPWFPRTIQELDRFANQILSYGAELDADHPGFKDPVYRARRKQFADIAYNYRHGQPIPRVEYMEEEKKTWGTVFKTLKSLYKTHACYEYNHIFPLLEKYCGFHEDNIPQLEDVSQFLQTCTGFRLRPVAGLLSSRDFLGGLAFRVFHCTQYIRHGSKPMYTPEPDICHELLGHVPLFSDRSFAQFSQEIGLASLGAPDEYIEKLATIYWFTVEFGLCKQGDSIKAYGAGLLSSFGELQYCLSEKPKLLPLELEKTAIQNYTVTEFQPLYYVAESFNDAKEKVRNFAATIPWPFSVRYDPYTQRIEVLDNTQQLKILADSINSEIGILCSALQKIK
Assay: Cell Based Phenylalanine Flux Assay
Settings: 24 hrs with compound, then 20 μM sepiapterin and 800 μM 13C9,15N-Phenylalanine for 4 hours, 13C-Tyrosine by LC-MS, average where tested multiple times
Summary of the method: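 Phenylalanine-to-tyrosine flux is measured in A375 cells carrying stable human R408W PAH. After 24 h compound exposure, 13C9,15N-Phe (800 μM) with sepiapterin (20 μM) is supplied for 4 h and media 13C-Tyr is read by LC-MS; AC50s are binned.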

[1] = A375 cells expressing R408W PAH

SMILES | AC50 (A375 R408W cells) | AC50 [1]
CC(C)(O)c1nc(Br)c(C(=O)N2CCc3[nH]cnc3[C@@H]2c2nc3cc(F)ccc3o2)o1 [Example 123, (R)-(4-bromo-2-(2-hydroxypropan-2-yl)oxazol-5-yl)(4-(5-fluorobenzo[d]oxazol-2-yl)-6,7-dihydro-1H-imidazo[4,5-c]pyridin-5(4H)-yl)methanone] | 1 to 5 µM | 
COc1cccc2nc(C3c4nc[nH]c4CCN3C(=O)c3cc(C(C)(C)C)nn3C)oc12 (centres unmarked) |  | ≥ 5 µM
Cc1ccc2nc([C@H]3c4nc[nH]c4CCN3C(=O)c3nnc(-c4cc[nH]n4)o3)oc2c1 [Example 360, (R)-(5-(1H-pyrazol-3-yl)-1,3,4-oxadiazol-2-yl)(4-(6-methylbenzo[d]oxazol-2-yl)-6,7-dihydro-1H-imidazo[4,5-c]pyridin-5(4H)-yl)methanone] | 1 to 5 µM | 
Cn1cc(-c2nnc(C(=O)N3CCc4[nH]cnc4[C@H]3c3nc4c(F)ccc(F)c4o3)o2)cn1 [Example 518, (S)-(4-(4,7-difluorobenzo[d]oxazol-2-yl)-6,7-dihydro-1H-imidazo[4,5-c]pyridin-5(4H)-yl)(5-(1-methyl-1H-pyrazol-4-yl)-1,3,4-oxadiazol-2-yl)methanone] | ≤ 0.5 µM | 
CC(C)(C)c1nnc(C(=O)N2CCc3[nH]cnc3[C@@H]2c2nc3c(F)ccc(F)c3o2)o1 [Example 851, (R)-(5-(tert-butyl)-1,3,4-oxadiazol-2-yl)(4-(4,7-difluorobenzo[d]oxazol-2-yl)-6,7-dihydro-1H-imidazo[4,5-c]pyridin-5(4H)-yl)methanone] | 0.5 to 1 µM | 
O=C(c1oc(C2CCN2)nc1C(F)F)N1CCc2[nH]cnc2C1c1nc2cc(F)ccc2o1 (centres unmarked) |  | 1 to 5 µM
FC(F)(F)c1nnc(N2Cc3[nH]cnc3[C@@H]2c2nc3ccccc3o2)o1 [Example 945, (R)-2-(5-(5-(trifluoromethyl)-1,3,4-oxadiazol-2-yl)-1,4,5,6-tetrahydropyrrolo[3,4-d]imidazol-4-yl)benzo[d]oxazole] | ≥ 5 µM | 
O=C(c1cnn2cc(N3CCC(O)CC3)ccc12)N1CCc2[nH]cnc2C1c1nc2c(F)cc(F)cc2o1 (centres unmarked) |  | 1 to 5 µM
CN1CCN(c2nc(C(F)F)c(C(=O)N3CCc4[nH]cnc4[C@@H]3c3nc4cccc(F)c4o3)o2)CC1 [Example 618, (R)-(4-(difluoromethyl)-2-(4-methylpiperazin-1-yl)oxazol-5-yl)(4-(7-fluorobenzo[d]oxazol-2-yl)-6,7-dihydro-1H-imidazo[4,5-c]pyridin-5(4H)-yl)methanone] | 0.5 to 1 µM | 
COc1cccc2nc([C@H]3c4nc[nH]c4CCN3C(=O)c3oc(C(C)(C)O)nc3C(F)F)oc12 [Example 456, (R)-(4-(difluoromethyl)-2-(2-hydroxypropan-2-yl)oxazol-5-yl)(4-(7-methoxybenzo[d]oxazol-2-yl)-6,7-dihydro-1H-imidazo[4,5-c]pyridin-5(4H)-yl)methanone] | 1 to 5 µM | 
O=C(CCc1cnco1)N1CCc2[nH]cnc2C1c1nc2cccc(F)c2o1 (centres unmarked) |  | 1 to 5 µM
Cn1cnc(-c2nc(C(F)F)c(C(=O)N3CCc4[nH]cnc4[C@H]3c3nc4ccccc4o3)o2)c1 [Example 786, (S)-(4-(benzo[d]oxazol-2-yl)-6,7-dihydro-1H-imidazo[4,5-c]pyridin-5(4H)-yl)(4-(difluoromethyl)-2-(1-methyl-1H-imidazol-4-yl)oxazol-5-yl)methanone] | 0.5 to 1 µM | 
O=C(c1cnn2cc(CCN3CCOCC3)ccc12)N1CCc2[nH]cnc2C1c1nc2cc(F)ccc2o1 (centres unmarked) |  | ≥ 5 µM
CC(C)n1nccc1C(=O)N1CCc2[nH]cnc2[C@@H]1c1nc2ccccc2o1 [Example 751, (R)-(4-(benzo[d]oxazol-2-yl)-6,7-dihydro-1H-imidazo[4,5-c]pyridin-5(4H)-yl)(1-isopropyl-1H-pyrazol-5-yl)methanone] | 1 to 5 µM | 
CC1CN(C(=O)c2oc(C(C)(C)O)nc2C(F)F)C(c2nc3cc(F)ccc3o2)c2nc[nH]c21 (centres unmarked) |  | 1 to 5 µM
O=C(c1nnc(-c2ccn(C(F)F)n2)o1)N1CCc2[nH]cnc2[C@H]1c1nc2ccccc2o1 [Example 846, (S)-(4-(benzo[d]oxazol-2-yl)-6,7-dihydro-1H-imidazo[4,5-c]pyridin-5(4H)-yl)(5-(1-(difluoromethyl)-1H-pyrazol-3-yl)-1,3,4-oxadiazol-2-yl)methanone] | ≤ 0.5 µM | 
O=C(c1ocnc1C(F)F)N1CCc2[nH]cnc2[C@@H]1c1nc2cc(Br)ccc2o1 [Example 150, (R)-(4-(5-bromobenzo[d]oxazol-2-yl)-6,7-dihydro-1H-imidazo[4,5-c]pyridin-5(4H)-yl)(4-(difluoromethyl)oxazol-5-yl)methanone] | ≤ 0.5 µM | 
O=C(c1ocnc1CC(F)F)N1CCc2[nH]cnc2[C@@H]1c1nc2cc(F)ccc2o1 [Example 866, (R)-(4-(2,2-difluoroethyl)oxazol-5-yl)(4-(5-fluorobenzo[d]oxazol-2-yl)-6,7-dihydro-1H-imidazo[4,5-c]pyridin-5(4H)-yl)methanone] | 0.5 to 1 µM | 
[2H][C@@]1(c2nc3cc(F)ccc3o2)c2nc[nH]c2CCN1C(=O)c1oc(C(C)(C)O)nc1C(F)F [Example 905] | ≤ 0.5 µM | 
O=C(c1oc(-c2ccncn2)nc1C(F)F)N1CCc2[nH]cnc2[C@H]1c1nc2cc(F)ccc2o1 [Example 526, (S)-(4-(difluoromethyl)-2-(pyrimidin-4-yl)oxazol-5-yl)(4-(5-fluorobenzo[d]oxazol-2-yl)-6,7-dihydro-1H-imidazo[4,5-c]pyridin-5(4H)-yl)methanone] | ≤ 0.5 µM | 
O=C(c1oc(-c2cccnc2)nc1C(F)F)N1CCc2[nH]cnc2[C@H]1c1nc2cc(F)ccc2o1 [Example 420, (S)-(4-(difluoromethyl)-2-(pyridin-3-yl)oxazol-5-yl)(4-(5-fluorobenzo[d]oxazol-2-yl)-6,7-dihydro-1H-imidazo[4,5-c]pyridin-5(4H)-yl)methanone] | ≤ 0.5 µM | 
Cn1ccc(-c2nnc(C(=O)N3CCc4[nH]cnc4[C@H]3c3nc4cccc(C(F)(F)F)c4o3)o2)n1 [Example 832, (S)-(5-(1-methyl-1H-pyrazol-3-yl)-1,3,4-oxadiazol-2-yl)(4-(7-(trifluoromethyl)benzo[d]oxazol-2-yl)-6,7-dihydro-1H-imidazo[4,5-c]pyridin-5(4H)-yl)methanone] | ≤ 0.5 µM | 
COc1cccc2oc([C@H]3c4nc[nH]c4CCN3C(=O)c3oc(C(C)(C)O)nc3C(F)F)nc12 [Example 428, (R)-(4-(difluoromethyl)-2-(2-hydroxypropan-2-yl)oxazol-5-yl)(4-(4-methoxybenzo[d]oxazol-2-yl)-6,7-dihydro-1H-imidazo[4,5-c]pyridin-5(4H)-yl)methanone] | 1 to 5 µM | 
O=C(c1nnc(-c2ccccn2)o1)N1CCc2[nH]cnc2[C@H]1c1nc2c(F)cc(F)cc2o1 [Example 523, (S)-(4-(4,6-difluorobenzo[d]oxazol-2-yl)-6,7-dihydro-1H-imidazo[4,5-c]pyridin-5(4H)-yl)(5-(pyridin-2-yl)-1,3,4-oxadiazol-2-yl)methanone] | 0.5 to 1 µM | 
Cn1cc(-c2ncc(C(=O)N3CCc4[nH]cnc4C3c3nc4cc(F)ccc4o3)o2)cn1 (centres unmarked) |  | 1 to 5 µM
O=C(c1oc(-c2ccccn2)nc1C(F)(F)F)N1CCc2[nH]cnc2[C@H]1c1nc2cccc(F)c2o1 [Example 638, (S)-(4-(7-fluorobenzo[d]oxazol-2-yl)-6,7-dihydro-1H-imidazo[4,5-c]pyridin-5(4H)-yl)(2-(pyridin-2-yl)-4-(trifluoromethyl)oxazol-5-yl)methanone] | ≤ 0.5 µM | 
